{"source": "paper PMC9610610", "about": "(Vaccines, 2022)", "molecular_target": "HLA-DQ8 (Homo sapiens, UniProt P01909+P01920, A209T/A45G/C70Q/D89A/DUP78-78/E183D/E77G/F237L/G63E/H199R/I129T/K197E/L178F/L74F/L98V/Q57E/Q76R/S185I/S97I/T217I/T49S/V73L/Y58L)", "sequence (P01920 33-261 A45G/Y58L/E77G/D89A/H199R/T217I limits assumed, other chains not shown)": "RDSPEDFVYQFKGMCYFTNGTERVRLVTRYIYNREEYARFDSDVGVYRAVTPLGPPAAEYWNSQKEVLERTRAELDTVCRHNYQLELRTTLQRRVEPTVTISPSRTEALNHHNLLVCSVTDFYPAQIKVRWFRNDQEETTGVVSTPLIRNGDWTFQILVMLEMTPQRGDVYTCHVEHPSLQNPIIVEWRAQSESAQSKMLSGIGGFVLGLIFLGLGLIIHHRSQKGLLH", "test": "biochemical", "type": "binding", "note": "Where no end group is shown, it is not given here.", "data": [{"sequence": "ADVEVYRAVTPLGPPD [DQB45–57]", "values": [{"measurement": "IC50", "value": 0.1, "unit": "µM"}]}]}
